Results reported in patent US20100196521A1, “Formulation for the treatment of hypoxia and related disorders” (priority 2009, published 2010).

Legend:
[1] = system: methemoglobinemia model mice (sodium nitrite); test: Sodium nitrite methemoglobinemia model, survival duration; format: in vivo, NIH mice; details: male quasi; for Survival Duration: observed 90 min; for Prolonged Percentage: vs negative control
Excerpt: This test was designed according to the relevant provisions of The Management of Medicine Registration issued by the State Food and Drug Administration (SFDA) of the People's Republic of China, and The Assemble of Guiding Principle of Pre-clinical Research on New Drugs (in Western Medicine) from the Bureau of Drug Administration, Ministry of Public Health, People's Republic of China. Five test groups were designed for this test, namely the negative control group (A), the positive control medicine group (B), and three groups administrated with the test item at the high (C), medium (D), and low (E) dosage levels. SPF class NIH mice were randomly distributed into 10-12 pieces (male quasi) in each group. The design of experiment was described in Table 5.
In establishing the methemoglobinemia model, a 2% sodium nitrite was injected into abdomen of the mice (male mice: 240 mg/kg, 12 mL/kg; female mice: 260 mg/kg, 13 mL/kg). Stopwatch was immediately started to record time and simultaneously, vegetable oil or the test item was applied to the mice of the respective group. Mice in the positive control group I (group B-I) were administered with Nimodipine through gastric gavage an hour before model was established, while those in the positive control group II were administered Nimodipine through gastric gavage immediately upon the setting up of the model. […]

[2] = system: decapitated mice (acute cerebral ischemic hypoxia); test: Global cerebral ischemia (decapitation method), formal test; format: in vivo, NIH mice; details: group B: 2.0 mg/kg hypodermic injection once a day for 2 days
Excerpt: Five test groups were designed for this test, namely the negative control group (A), the positive control medicine group (B), and three groups administrated with the test item at the high (C), medium (D), and low (E) dosage levels. SPF class NIH mice were randomly distributed into 14 pieces in each group. The design of experiment was described in Table 9. Mice in negative control group (A) were topically applied with vegetable oil, whereas those in positive control group (B) were administrated with Nimodipine by hypodermic injection once a day for 2 consecutive days. Mice in groups (C), (D), and (E) received the test item through skin administration once a day for 7 consecutive days. 60 minutes after the final administration of the test item and vegetable oil to the mice of the corresponding groups, and 30 minutes after the final administration of Nimodipine to the mice of the positive medicine control group, the heads of mice were rapidly severed from the back of ear root with a pair of sharp scissors (decapitation method). The gasping duration and gasping frequency were immediately recorded with a stopwatch The results are shown as follows: […]

[3] = system: cerebral ischemic hypoxia mice; test: Cerebral circulatory disturbance hypoxia (common carotid artery and vagus ligation), survival; format: in vivo, NIH mice; details: group B: 2.0 mg/kg hypodermic injection once a day for 5 days
Excerpt: (§1) Five test groups were designed for this test, namely the negative control group (A), the positive control medicine group (B), and three groups administrated with the test item at the high (C), medium (D), and low (E) dosage levels. SPF class NIH mice were randomly distributed into 12 to 14 pieces in each group. The design of experiment was described in Table 15.
Mice in negative control group (A) were topically applied with vegetable oil, whereas those in positive control group (B) were administrated with Nimodipine by hypodermic injection. Mice in groups (C), (D), and (E) received the test item through skin administration. All the five groups received the corresponding item once a day for 5 consecutive days. 50 minutes after the final administration of the test item, and 30 minutes after the final administration of Nimodipine, the mice were given an intraperitoneal injection of Urethane (8%, 0.8 g/kg.bw, 10 mL/kg.bw) as anesthetics. The mice then underwent a separation of the left and right common carotid artery as well as the vagus, and were separately ligated with a No. 4 suture. Survival duration for the mice were immediately recorded with a stopwatch, with results as follows: […]

[4] = system: mice in low-pressure hypoxic environment; test: Hypobaric hypoxia survival test; format: in vivo, NIH mice; details: group B: 26 mg/kg gastric gavage, male quasi
Protocol: as §1, with “12” for “12 to 14”, “13.” for “15.”
One hour after administrating the positive control medicine, and 30 minutes after applying the test item or the negative control in the corresponding groups, the mice (6 mice/batch, 2 batches/group) were put in consecutive order into the vacuum drier connected with a suction (built in soda lime to absorb CO2 and water). The suction process was started until the air pressure dropped to a certain negative pressure (Male mouse: 580 mmHg; female mouse: 600 mmHg). Then, stopwatch was used to record the survival duration and the number of survivals in each group within 60 minutes.

[5] = system: sodium nitrite induced hypoxia model mice; test: Study on blood pH and blood hypoxia (sodium nitrite induced hypoxia animal model); format: in vivo, SD mice; details: 10 days after
Protocol: In this study regarding oxygen carrying ability of red blood cells, the test item was the formulation as described in Mixture 3 listed in Table 1 (the formulation). First of all, healthy SD mice were fed with sodium nitrite (17 mg/kg) by gastric gavage for 7 consecutive days to induce the hypoxia animal model. The mice were then randomly distributed into 8 groups: (A) normal mice blank control group, (B) normal mice applied with the formulation group (82.5 μL/kg), (C) model mice applied with vitamin C (62.5 mg/kg) control group, (D) model mice applied with vitamin E (104 mg/kg) control group, (E) model mice applied with vegetable oil (82.5 μL/kg) control group, (F) model mice applied with high dose of the formulation (330 μL/kg), (G) model mice applied with medium dose of the formulation (165 μL/kg), (H) model mice applied with low dose of the formulation (82.5 μL/kg). There were 12 mice for each group. On the 7th day of hypoxia model induction, the formulation was applied topically on the mice in the formulation groups (B, F, G and H), and equal amount of vegetable oil was also topically applied on the mice in the group (E). Vitamins C and E were administrated by gastric gavage to mice in groups (C) and (D) respectively. 10 days after the application of the corresponding items, blood samples were taken in which blood pH, arterial oxygen partial pressure (pO2), and blood oxygen were tested, and the results are as listed below: […]

[6] = system: sodium nitrite induced memory consolidated handicap mice; test: Memory consolidated handicap model, water maze test; format: in vivo, NIH mice; details: group B: 1.04 mg/kg intramuscular injection
Excerpt: […], a cerebral hypoxic agent, was used to establish this memory consolidated handicap model. Due to its strong oxidation property, it could convert low value iron in the hemoglobin into high value iron and thus affects the hemoglobin to lose its anti-oxidative ability, resulting in Methemoglobinemia disease. Brain tissue is the most sensitive tissue to hypoxia and it would be injured once it experienced memory consolidated handicap. Therefore, in the establishment of this model, the applying of […] would affect the space recognition ability of the mice. This test was designed according to the relevant provisions of The Management of Medicine Registration issued by the State Food and Drug Administration (SFDA) of the People's Republic of China, and The Assemble of Guiding Principle of Pre-clinical Research on New Drugs (in Western Medicine) from the Bureau of Drug Administration, Ministry of Public Health, People's Republic of China. Five test groups were designed for this test, namely the negative control group (A), the positive control medicine group (B), and three groups administrated with the test item at the high (C), medium (D), and low (E) dosage levels. […] The design of experiment was described in Table 11. Each group of mice was continuously trained for 5 days, once in the morning and once in the afternoon, for 60 seconds in each training session. Before the training session on the afternoon of the 5th day, sodium nitrite was administered at dose level of 160 mg/kg to the mice through hypodermic injection to induce the mice to experience memory consolidated handicap symptom. 30 minutes after medication, the water maze test was carried out. The aforesaid test was then repeated on the following morning.

[7] = group B-I: 62 mg/kg gastric gavage an hour before model
[8] = group B-II: 62 mg/kg gastric gavage immediately upon model
[9] = group C: hypoxia model mice, 62.5 mg/kg gastric gavage
[10] = group D: hypoxia model mice, 104 mg/kg gastric gavage

## COCCOC(=O)C1=C(C)NC(C)=C(C(=O)OC(C)C)C1c1cccc([N+](=O)[O-])c1 (stereo not shown) [Nimodipine]
[1]; [7]
  Survival Duration: 48.44 ± 21.36 min
  Prolonged Percentage: 56.26%
[1]; [8]
  Survival Duration: 39.10 ± 17.30 min
  Prolonged Percentage: 26.24%
[2]
  Gasping Duration, Time: 24.6 ± 4.6 s
  Gasping Frequency, Times: 14.5 ± 3.6 Times
[2]; vs negative control
  Gasping Duration, Extension Rate: 28.6%
  Gasping Frequency, Increment Rate: 25.6%
[3]
  Survival Duration: 55.4 ± 15.2 min
[3]; vs negative control
  Prolonged Percentage: 1224.3%

## CC(C)NCC(O)COc1cccc2ccccc12 (stereo not shown) [Propranolol]
[4]; vs negative control
  Prolonged Percentage: 108.4%
[4]; within 60 minutes
  Survival Duration: 50.40 ± 16.33 min
  Survival Percentage: 41.7%

## O=C1O[C@H]([C@@H](O)CO)C(O)=C1O [Vitamin C, vitamin C]
[5]; [9]
  Blood oxygen: 93.6 ± 1.3 %
  Blood pH: 7.420 ± 0.036
  Oxygen partial pressure: 10.51 ± 0.96 kPa
[6]; Day 5, Afternoon (after sodium nitrite 160 mg/kg)
  Time to Reach the Platform: 46.9 ± 15.5 s
[6]; Day 5, Morning (before sodium nitrite)
  Time to Reach the Platform: 42.0 ± 24.3 s
[6]; Day 6, Morning
  Time to Reach the Platform: 41.7 ± 21.1 s

## vitamin E
[5]; [10]
  Blood oxygen: 94.0 ± 2.1 %
  Blood pH: 7.455 ± 0.049
  Oxygen partial pressure: 10.76 ± 2.14 kPa
